The numbers were not newly measured in patent publication US20140162261A1, “DETECTION KIT FOR IDENTIFYING GENOTYPE IN DEPRESSION PATIENTS AND METHOD OF USING THE SAME” (priority 2012, published 2014), which cites them from elsewhere.

For data set [1], the target named is T1, striatal dopamine D2 receptors (Homo sapiens, UniProt P14416).
T1 construct: host or cells: striatum (in vivo)
Conditions: 4 mg dose.

For data set [2] the following is noted: oral administration.
The next data set deals with depression patients. Conditions: SSRIs in combination with low-dose risperidone (0.5-1 mg/day), in 1-2 days.

T1 sequence (P14416 whole entry): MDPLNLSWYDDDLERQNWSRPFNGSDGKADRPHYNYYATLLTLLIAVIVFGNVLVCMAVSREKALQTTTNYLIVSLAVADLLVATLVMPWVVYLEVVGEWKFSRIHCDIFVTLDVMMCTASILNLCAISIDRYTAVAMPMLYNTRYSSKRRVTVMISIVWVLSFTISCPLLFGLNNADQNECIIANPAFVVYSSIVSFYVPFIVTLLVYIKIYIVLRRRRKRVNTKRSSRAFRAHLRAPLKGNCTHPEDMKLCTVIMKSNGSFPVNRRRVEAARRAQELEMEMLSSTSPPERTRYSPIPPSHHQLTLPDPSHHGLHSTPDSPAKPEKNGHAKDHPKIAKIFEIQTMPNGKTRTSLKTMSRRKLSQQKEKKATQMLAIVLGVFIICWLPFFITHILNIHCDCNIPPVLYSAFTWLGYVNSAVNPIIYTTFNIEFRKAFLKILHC

With `Cc1nc2n(c(=O)c1CCN1CCC(c3noc4cc(F)ccc34)CC1)CCCC2` [Risperidone], the “blockade of striatal dopamine D2 receptors” value in data set [1] is recorded as 70-80%. Besides, in the data set with α2-adrenergic receptors, the “affinity for α2-adrenergic receptors” value was “low affinity”. For the same molecule, the “effect of food on digestion (absorption)” value in data set [2] is “not affected by food”. Besides, in the data set with cholinergic receptors, the “binding with cholinergic receptors” value was “does not bind”. Moreover, in the data set with depression patients, the “improvement of patients' symptoms” value is recorded as “significantly improve most of the patient's symptoms”.
